Values joined by “and” are separate entries in the source; they are usually repeats but may differ in a detail not shown here. Identical values can stand only once.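 Where inhibition never reached the appropriate level, the endpoint shown equals the highest concentration tested. Otherwise, values were interpolated linearly from a five-concentration, 48-hour dose response in 96-well plates. Abbreviation: GI50, concentration required for 50% inhibition of growth. TGI is the concentration that stops growth completely.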

What all share (assay): NCI-60 cell line screen, 48 h
Experiment [1] concerns DU-145 prostate.
Experiment [2] has as its system HOP-62 NSCLC.
The test system of experiment [3] is IGROV1 ovarian.
Experiment [4] concerns M14 melanoma.
For experiment [5], the system named is MDA-N.
Experiment [6] has as its system NCI-H460 lung.
Experiment [7] concerns SF-268 CNS.
In experiment [8] the test system is SK-MEL-28 melanoma.
The subject of experiment [9] is TK-10 renal.
Experiment [10] relates to UACC-62 melanoma.

In the case of `CC(C)C(C/C=C1\CC(CO)(COC(=O)CC(C(C)C)C(C)C)OC1=O)C(C)C` (configuration not stated), the TGI in experiment [1] worked out at 22 µM; in [2] it was 20.5 µM; in [3] it was 28.1 µM; in [4], 24.6 µM; in [5], 18 µM; in [6], 21.7 µM. The TGI in [7] was determined as 27.6 µM; in experiment [8] it was 29.3 µM; in experiment [9], 21.8 µM; in experiment [10] it was 29 µM.

With `Cc1cc([N+](=O)[O-])ccc1N=NC(=O)NNc1ccc([N+](=O)[O-])cc1C`, the TGI in experiment [1] turned out to be 30.1 µM; in experiment [2] it was 29 µM; in experiment [3], 33.8 µM; in experiment [4] it was 28.3 µM; in experiment [5], 29.9 µM; in experiment [6] it was 33.4 µM. For the same compound, the TGI in [7] is 40.9 µM; in [8], 29.9 µM; in experiment [9], 31.5 µM; in experiment [10], 26.3 µM.

With `CC1(C)[C@@H]2C[C@H]1C(Cc1cccc(C[C@H]3c4cc(-c5ccccn5)ncc4[C@H]4C[C@@H]3C4(C)C)c1)c1cc(-c3ccccn3)ncc12` (some centres not stated), the TGI was greater than 100 µM in [1]; 15.5 µM in experiment [2]; greater than 100 µM in [3]; 8.45 µM in experiment [4]; greater than 100 µM in experiment [5]; 12 µM in experiment [6]. For the same compound, the TGI in experiment [7] is greater than 100 µM; in [8], greater than 100 µM; in [9] it was greater than 100 µM; in [10] it was greater than 21 µM. In addition, the GI50 in experiment [3] was 0.662 µM; in experiment [4], 0.858 µM.

For the compound `CCOC(=O)N(C)C1(c2ccccc2)CCN(CCCC(=O)c2ccc(F)cc2)CC1`, the TGI is greater than 100 µM in experiment [1]; greater than 100 µM in experiment [2]; greater than 100 µM in experiment [3]; 32.1 µM in experiment [4]; 41.5 µM in [5]; greater than 100 µM in [6]. Further, the TGI in experiment [7] is greater than 100 µM; in experiment [8] it was 47.1 µM; in experiment [9], greater than 100 µM; in [10], greater than 100 µM.

As for `COc1ccc(C2=CN3CCC[C@H]3C=C2c2cc(O)c(OC)c(OC)c2)cc1OC`, the TGI is 0.254 µM in [1]; 0.122 µM and 0.148 µM in experiment [2]; 0.3 µM and 0.0857 µM in [3]; 0.0204 µM in experiment [4]; 0.104 µM in experiment [5]; 0.0267 µM and 0.0127 µM in experiment [6]. For the same compound, the TGI in experiment [7] was 0.112 µM; in [8] it was 0.101 µM and 0.0107 µM; in [9], 0.153 µM; in experiment [10], 0.0336 µM.

As for `NC(=O)CS(=O)CC(N)C(=O)O` (configuration not stated), the TGI in experiment [1], in experiment [2], in [3], in [4], in experiment [5] and in experiment [6] was greater than 100 µM throughout. In addition, the TGI in experiment [7], in experiment [8], in experiment [9] and in experiment [10] was greater than 100 µM throughout.

In the case of `CCC(C)C1(O)OC2CC3(C)OC(=CC3=O)/C(C)=C\C3OC(=O)C1(C)C32` (configuration not stated), the TGI in [1] is 17 µM; in [2] it was greater than 100 µM; in experiment [3] it was 53.5 µM; in [4], greater than 100 µM; in [5], 21 µM; in [6], 57.9 µM. The TGI in experiment [7] was greater than 100 µM; in experiment [8], greater than 100 µM; in experiment [9], 54.2 µM; in experiment [10], 35.3 µM.

Consider `O=C(C#Cc1cn(C2CC(O)C(CO)O2)c(=O)[nH]c1=O)c1ccccc1` (configuration not stated), for which the TGI in [1], in experiment [2], in experiment [3], in [4], in [5] and in experiment [6] was greater than 100 µM throughout. For the same compound, the TGI in experiment [7], in experiment [8], in experiment [9] and in experiment [10] was greater than 100 µM in each case.

Turning to `CCCCCCOc1ccc(NC2=C(Cl)C(=O)c3ncccc3C2=O)cc1`, the TGI in experiment [1] was found to be 2.83 µM; in experiment [2], 3.88 µM; in experiment [3], 7.85 µM; in experiment [4], 4.04 µM; in experiment [5] it was 2.97 µM; in experiment [6], 3.18 µM. In addition, the TGI in experiment [7] was 4.07 µM; in [8], 3.04 µM; in [9], greater than 10 µM; in experiment [10] it was 2.75 µM.

Regarding `O=C1C(N=Nc2ccc(-c3nc4ccccc4[nH]3)cc2)NC(=S)N1c1ccccc1` (configuration not stated), the TGI in experiment [1], in experiment [2], in [3], in experiment [4], in experiment [5] and in experiment [6] was greater than 100 µM each time. The TGI in [7], in experiment [8], in [9] and in experiment [10] was greater than 100 µM throughout.

For the compound `NC(=O)NCCCC(NC(=O)OCCCCCn1ccc(=O)[nH]c1=O)C(=O)O` (configuration not stated), the TGI in experiment [1], in experiment [2], in experiment [3], in experiment [4], in [5] and in experiment [6] was greater than 100 µM in each case. Further, the TGI in [7], in experiment [8], in [9] and in [10] was greater than 100 µM in each case.

Turning to `COc1cc(-c2nc3nc(N4CCN(C)CC4)ccc3[nH]2)c(OC)c2[nH]c(COC(C)=O)nc12`, the TGI in experiment [1] is greater than 100 µM; in [2], greater than 100 µM; in experiment [3], greater than 100 µM; in [4] it was 34.4 µM; in [5], greater than 100 µM; in experiment [6], 99.3 µM. Further, the TGI in experiment [7], in experiment [8], in experiment [9] and in [10] was greater than 100 µM in each case.

`CN(C)CCOC1(CC2CCCCC2)CCC(C(C)(C)C)CC1` (configuration not stated): the TGI in experiment [1] is 19.6 µM; in experiment [2], 11.2 µM; in experiment [3], 22.2 µM; in experiment [4], 4.61 µM; in experiment [5], 13.1 µM; in [6], 9.65 µM. The TGI turned out to be 25.4 µM in experiment [7], 12.3 µM in experiment [8], 25.5 µM in [9] and 20.3 µM in experiment [10].

For `CC(=O)NC1=C(C)C(=O)c2c(nc3n2CC[C@H]3OC(C)=O)C1=O`, the TGI in experiment [1] was found to be 29.4 µM; in experiment [2], 28.3 µM; in experiment [3], 8.71 µM; in experiment [4] it was 4.01 µM; in experiment [5] it was 1.69 µM; in experiment [6], 9.11 µM. The TGI was determined as 10.7 µM in [7], 5.16 µM in experiment [8], 13.9 µM in experiment [9] and 3.77 µM in experiment [10].

For `O=C(O)c1ccc(Nc2nc3ccccc3nc2C(=O)O)cc1`, the TGI in experiment [1], in [2], in experiment [3], in [4], in [5] and in experiment [6] was greater than 100 µM throughout. Moreover, the TGI in experiment [7], in experiment [8], in experiment [9] and in experiment [10] was greater than 100 µM throughout.

For the compound `O=[N+]([O-])c1ccc(Cl)cc1C=NC12CC3CC(CC(C3)C1)C2`, the TGI in experiment [1], in experiment [2], in experiment [3], in [4], in experiment [5] and in experiment [6] was greater than 100 µM each time. In addition, the TGI in [7], in experiment [8], in experiment [9] and in experiment [10] was greater than 100 µM each time.

In the case of `COc1ccc(C2c3cc4c(cc3OC(N3CCCCC3)C2C)OCO4)cc1` (configuration not stated), the TGI in experiment [1], in [2], in experiment [3], in [4], in experiment [5] and in experiment [6] was greater than 100 µM throughout. Moreover, the TGI in [7], in experiment [8], in experiment [9] and in experiment [10] was greater than 100 µM throughout.

In the case of `Cc1n(CC(=O)c2ccccc2)nc2sc(N)n[n+]12`, the TGI in experiment [1], in [2], in [3], in [4], in experiment [5] and in [6] was greater than 100 µM each time. The TGI in experiment [7] was greater than 100 µM; in [8], greater than 100 µM; in experiment [9], greater than 100 µM; in [10], 37.4 µM.

For `CC(C)(C)OC(=O)NCC(=O)N1CCCN(C(=O)CNC(=O)OC(C)(C)C)CC1`, the TGI in experiment [1], in experiment [2], in [3], in experiment [4], in [5] and in experiment [6] was greater than 100 µM in each case. For the same compound, the TGI in experiment [7], in [8], in experiment [9] and in experiment [10] was greater than 100 µM throughout.

`O=C(c1ccccc1)N1C(=S)N(c2ccc([N+](=O)[O-])cc2)C(=Nc2ccccc2)C1=Nc1ccccc1`: the TGI in experiment [1], in [2], in experiment [3], in [4], in experiment [5] and in experiment [6] was greater than 100 µM throughout. In addition, the TGI in experiment [7], in experiment [8], in [9] and in experiment [10] was greater than 100 µM throughout.

`O=C(O)C1SCCS1`: the TGI in experiment [1], in [2], in experiment [3], in experiment [4], in experiment [5] and in [6] was greater than 100 µM in each case. In addition, the TGI in [7], in experiment [8], in [9] and in experiment [10] was greater than 100 µM in each case.

For `O=C(NN1C(=O)C=CC1=O)c1ccccc1Nc1ccccc1C(=O)NN1C(=O)C=CC1=O`, the TGI in experiment [1], in experiment [2], in [3], in experiment [4], in experiment [5] and in experiment [6] was greater than 100 µM throughout. In addition, the TGI in experiment [7], in experiment [8], in [9] and in experiment [10] was greater than 100 µM in each case.

On to `NCCCCNC1(c2cc3ccccc3s2)CCCCC1`, for which the TGI in experiment [1] was 23.5 µM; in experiment [2], 20 µM; in [3], 13.1 µM; in experiment [4], 3.8 µM; in [5] it was 3.39 µM; in [6], 7.42 µM. Further, the TGI was 13.5 µM in experiment [7], 3.81 µM in experiment [8], 10.4 µM in [9] and 3.79 µM in experiment [10].

Turning to `C/C(N=Nc1nc2ccccc2o1)=C1/C=CC=CN1O`, the TGI in experiment [1], in experiment [2], in experiment [3], in experiment [4], in [5] and in experiment [6] was greater than 100 µM throughout. The TGI in experiment [7] was greater than 100 µM; in experiment [8] it was greater than 100 µM; in experiment [9], 34.9 µM; in experiment [10], greater than 100 µM.

In the case of `COc1ccc2c(c1)-c1nn(CCN(C)C)c3ccc(C(=O)NCCCN(C)CCCNC(=O)c4ccc5c6c(nn5CCN(C)C)-c5cc(OC)ccc5Nc46)c(c13)N2`, the TGI in experiment [1] was determined as 0.952 µM; in [2], 1.32 µM; in experiment [3] it was 1.47 µM; in experiment [4], 1.33 µM; in experiment [5], 0.564 µM; in experiment [6], 1.11 µM. Besides, the TGI worked out at 2.46 µM in experiment [7], 0.48 µM in [8], 4.95 µM in experiment [9] and 0.23 µM in [10].

Take `COc1ccc(/C=C2\CN(C)Cc3c2[nH]c(=O)c(C#N)c3-c2ccc(OC)cc2)cc1`: the TGI in experiment [1], in [2], in experiment [3], in experiment [4], in experiment [5] and in experiment [6] was greater than 100 µM throughout. The TGI in experiment [7], in experiment [8], in [9] and in experiment [10] was greater than 100 µM throughout.

The record behind these values is PubChem BioAssay (NCI).
